Source: the METLIN SMRT retention time set (Domingo-Almenara et al. 2019)

Test: gradient 5% acetonitrile 3 min, to 50% in 2 min, to 85% in 15 min, held 3 min, 100 µL/min
Details: column: Zorbax Extend-C18 2.1 x 50 mm; eluents: water / acetonitrile, 0.1% formic acid
Outline: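 Values are retention times taken from adduct peaks that software picked and an analyst inspected. The pure standards were run as mixtures of ~100 molecules on HPLC linked to a quadrupole time-of-flight mass spectrometer, in positive and negative ionization mode. A Zorbax Extend-C18 column (2.1 × 50 mm, 1.8 μm) was used at 100 μL/min with water and acetonitrile, each including 0.1% formic acid.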

SMILES | RP-LC retention time [s]
Cc1cc(C)n(-c2ccc(=O)n(C(C)C(=O)NCCc3csc(-c4ccccc4)n3)n2)n1 (stereo unspecified) | 780
CCOC(=O)c1sc(NC(=O)CSc2nc3ccccc3[nH]2)nc1C | 810
O=S(=O)(c1ccc(Br)cc1)N1CCSC1c1ccco1 (stereo unspecified) | 965
Cc1ccn2c(NC(=O)C(C)(C)Oc3ccc(Cl)cc3)c(-c3ccc(F)cc3)nc2c1 | 819
Cc1cc(-c2nnc(C3CCC3)o2)c(C)n1CC(=O)NCc1cccc(C(F)(F)F)c1 | 937
Cc1cc(C)cc(NC(=O)Nc2ccc3nc(N4CCN(C)CC4)cc(C)c3c2)c1 | 620
CSc1ccc(CCNC(=O)CCC(=O)N2CCCn3nc(C)cc32)cc1 | 703
CC(C)(C)c1ccc(O)c(NC(=O)c2cn(-c3ccc(S(=O)(=O)N4CCCCC4)cc3)cn2)c1 | 1100
Fc1ccc(OCc2nn3c(CSc4ccccc4)nnc3s2)cc1 | 966
O=C(NCc1ccc(F)cc1)c1c(O)c2cccnc2n(-c2cccc(F)c2)c1=O | 1140
Cn1cc(CN2CCC(C(=O)NC3CCCCCC3)CC2)c2cc(Cl)ccc21 | 751
Cc1ccc(C(=O)N2CCc3nc(-c4ccc(F)cc4)ncc3C2)cc1C | 901
O=C(c1n[nH]c2ccccc12)N1CCC(c2noc(C3CC3)n2)C1 (stereo unspecified) | 720
CCOC(=O)C1=C[C@]2(CC)CCCN3CCc4c(n1c1ccccc41)[C@@H]32 | 777
CC(C)(Oc1ccc(Cl)cc1)C(=O)N1CCN(CCn2cccn2)CC1 | 598
COc1ccc(S(=O)(=O)N(C)CC2(C)CCOCC2)cc1Cl | 925
COc1ccc(CCNC(=O)Nc2nnc(-c3ccc(F)cc3F)o2)cc1 | 788
Cc1nc(-c2csc(S(=O)(=O)N3CCCC(C(=O)NCc4ccc(F)cc4)C3)c2)no1 (stereo unspecified) | 892
Cc1cccc(-c2noc(C3CCCN3C(=O)NC3CCCC3)n2)c1 (stereo unspecified) | 955
COC(=O)c1cccc(N2C=C(C#N)S(=O)(=O)c3cc(F)ccc32)c1 | 872
CCOC(=O)c1c(C)oc2nc(C)nc(N3CCN(c4ccc(OC)cc4)CC3)c12 | 979
CC(=O)c1ccc(NC(=O)c2cnn(-c3ccc(Br)cc3)c2)cc1 | 948

SMILES | RP-LC retention time [s]
Cc1noc(C)c1CN1CCC(n2c(C)cnc2-c2ccncc2)C1 (stereo unspecified) | 525
CC1=C(c2ccccc2)S(=O)(=O)N=C1N1CCCN(C(=O)CC2CCCC2)CC1 | 861
CCCCS(=O)(=O)c1cc2c(cc1NC(=O)c1ccccc1C)n(C)c(=O)n2C | 853
O=C(NCCC1=CCCCC1)C(=O)NCC1CCN(Cc2ccccc2)CC1 | 593
CCOC(=O)N1CCN(c2nc(F)c(F)c(S(=O)(=O)CCNc3ccccc3)c2F)CC1 | 1010
CCc1nc(-c2csc(S(=O)(=O)N3CCCC(C(=O)NCc4cccs4)C3)c2)no1 (stereo unspecified) | 952
Cc1ccc(NC(=O)Cn2nc3c(N4CC(C)CC(C)C4)nccn3c2=O)cc1 (stereo unspecified) | 884
CCn1c(=O)c(N2CCN(C(=O)Nc3ccc4c(c3)OCO4)CC2)nc2ccccc21 | 868
CC(C)c1cc(C2CCCN2C(=O)NC(C)(C)C)on1 (stereo unspecified) | 835
Cc1ccc(NC(=O)N2CCC3(C2)c2nc[nH]c2CCN3C)c(C)c1 (stereo unspecified) | 568
CC1(C)SC2C(NC(=O)[C@H](NC(=O)N3CCNC3=O)c3ccccc3)C(=O)N2C1C(=O)O (stereo partly specified) | 709
COc1ccc(NC(=O)c2nnc(C(=O)NCCc3c[nH]c4ccc(OC)cc34)s2)cc1 | 951
CCNC(=O)N1CCc2c(c(-c3nc(-c4ccc(F)cc4)no3)nn2C)C1 | 788
COc1ccc(C(=O)NC2CCCCCC2)cc1CN1CC(=O)N2CCCC2C1=O (stereo unspecified) | 702
CCCN(CCC)C1CCc2ccc(O)cc2C1 (stereo unspecified) | 640
Cc1oc(-c2cccs2)nc1COc1cc(C)c2c(C)nn(C)c2n1 | 1060
CCC1CN1P1(=O)OCC(C)([N+](=O)[O-])CO1 (stereo unspecified) | 721
CCOC(=O)COc1ccccc1C1CC(c2cccs2)=NN1C(=O)c1ccco1 (stereo unspecified) | 941
O=C(Cc1ccccc1F)NCCc1nc(-c2ccc3c(c2)OCO3)n[nH]1 | 687
CCN1C(=O)COc2ccc(-c3nc(NC(=O)CCC4CCCCC4)sc3C)cc21 | 1240
Cn1nc(C(=O)N2CCCC(C(=O)Nc3ccccc3)C2)c2c1CCN(C(=O)C1CCCC1)C2 (stereo unspecified) | 786
Cc1nc(-c2ccccc2Cl)sc1C(=O)NCCc1c[nH]c2ccccc12 | 1020

SMILES | RP-LC retention time [s]
O=C(Nc1ccc(N2CCN(c3ccccc3)C2=O)nc1)c1ccc(Cl)cc1 | 1010
CC(C)c1nnc(-c2sccc2NC(=O)C2CCC2)o1 | 1230
Cc1nc(-c2cccs2)c(CCC(=O)Nc2ccccc2C(F)(F)F)s1 | 923
CCOC(=O)CCCn1nc(C)c2c(C)n(-c3ccccc3)nc2c1=O | 829
CCOc1ccc(C2c3[nH]c4ccccc4c3CCN2C(=O)CCC2CCCC2)cc1 (stereo unspecified) | 1460
O=C(NCCn1nc(-n2cccn2)ccc1=O)C1(c2ccccc2)CCOCC1 | 635
O=C(Nc1ccccc1)C1CCCN(S(=O)(=O)c2c[nH]c(C(=O)N3CCCCCC3)c2)C1 (stereo unspecified) | 876
CN1CCN(C(=O)CSc2nccnc2Sc2ccccc2)CC1 | 637
O=C1CC(c2nc(-c3ccc4c(c3)OCO4)no2)CN1c1cccc(Cl)c1 (stereo unspecified) | 999
Cc1ccc2nc(-c3ccccc3O)c(Nc3ccc(Cl)cc3)n2c1 | 781
O=C(Nc1cnc(N2CCCC2)nc1)c1ccc(Br)cc1 | 796
O=C(NCCn1nc(-c2ccco2)ccc1=O)c1ccc2c(c1)ncn2-c1ccccc1 | 629
COc1ccc2c(c1)C1(CCN(S(=O)(=O)c3cc(F)cc(F)c3)C1)C(=O)N2 (stereo unspecified) | 872
CCCCC(=O)N1CCN(c2cc(C)nc(Nc3ccc(C)cc3)n2)CC1 | 693
Cc1cc2c(cc1S(=O)(=O)N1CCCC1C(=O)NCCCc1ccccc1)OCC(=O)N2 (stereo unspecified) | 816
Cc1c(Cl)cccc1S(=O)(=O)N1CCCC1c1nc(-c2cccc(F)c2)no1 (stereo unspecified) | 1220
CC(=O)Nc1ccc(S(=O)(=O)N2CCN(S(=O)(=O)N(C)C)CC2)cc1 | 653
O=C(c1n[nH]c2ccccc12)N1CCC[C@H]1c1nc(-c2ccccc2)n[nH]1 | 683
O=C1CCCc2cc(S(=O)(=O)N3CCC(C(=O)N4CCC5(CC4)OCCO5)CC3)ccc2N1 | 662
Cc1cc(-c2nnc(-c3ccc(F)cc3)o2)c(C)n1CC(=O)NCc1ccc(F)cc1F | 939
CC(O)CNC(=O)C1CCN(c2ccc(Sc3ccc(C(C)C)cc3)nn2)CC1 (stereo unspecified) | 704
Cc1ccc(C2=NC3(CCN(C(=O)Nc4ccc5c(c4)OCO5)CC3)NC2=O)cc1 | 714
